Laboratory results taken from PMC6364417, “Kinase inhibitor library screening identifies synergistic drug combinations effective in sensitive and resistant melanoma cells” (Journal of Experimental & Clinical Cancer Research : CR, 2019).

Tests used:
Assay in all cases: Kinase inhibitor library screening, PrestoBlue cell viability, 1 or 10 μM, 72 h
[1] = test system: IGR37 cells (parental); conditions: for cell viability (kinase inhibitor library screening) / cell viability, IGR37 Parental, 1μΜ / cell viability, IGR37 Parental, 10μΜ: IGR37 Parental, 72 h; for viability at 1 µM / viability at 10 µM: Homo sapiens, IGR-37, 72 h; for viability at 1 µM: read-out: cell viability, IGR37 Parental, 1μΜ; for viability at 10 µM: read-out: cell viability, IGR37 Parental, 10μΜ; for cell viability, IGR37 Parental, 1μΜ / cell viability, IGR37 Parental, 10μΜ: in %
[2] = test system: 501Mel-GP cells (Dabrafenib-resistant); conditions: 72 h; for cell viability (kinase inhibitor library screening) / cell viability, 501Mel GP, 1μΜ / cell viability, 501Mel GP, 10μΜ: 501Mel GP; for viability at 1 µM / viability at 10 µM: Homo sapiens; for viability at 1 µM: read-out: cell viability, 501Mel GP, 1μΜ; for viability at 10 µM: read-out: cell viability, 501Mel GP, 10μΜ; for cell viability, 501Mel GP, 1μΜ / cell viability, 501Mel GP, 10μΜ: in %
[3] = test system: A375 cells (parental); conditions: for cell viability (kinase inhibitor library screening) / cell viability, A375 Parental, 1μΜ / cell viability, A375 Parental, 10μΜ: A375 Parental, 72 h; for viability at 1 µM / viability at 10 µM: Homo sapiens, A-375, 72 h; for viability at 1 µM: read-out: cell viability, A375 Parental, 1μΜ; for viability at 10 µM: read-out: cell viability, A375 Parental, 10μΜ; for cell viability, A375 Parental, 1μΜ / cell viability, A375 Parental, 10μΜ: in %
[4] = test system: IGR37-XP cells (Vemurafenib-resistant); conditions: for cell viability (kinase inhibitor library screening) / cell viability, IGR37 XP, 10μΜ / cell viability, IGR37 XP, 1μΜ: IGR37 XP, 72 h; for viability at 1 µM / viability at 10 µM: Homo sapiens, IGR-37, 72 h; for viability at 1 µM: read-out: cell viability, IGR37 XP, 1μΜ; for viability at 10 µM: read-out: cell viability, IGR37 XP, 10μΜ; for cell viability, IGR37 XP, 1μΜ: in %
[5] = test system: IGR37-GP cells (Dabrafenib-resistant); conditions: for cell viability (kinase inhibitor library screening) / cell viability, IGR37 GP, 10μΜ / cell viability, IGR37 GP, 1μΜ: IGR37 GP, 72 h; for viability at 1 µM / viability at 10 µM: Homo sapiens, IGR-37, 72 h; for viability at 1 µM: read-out: cell viability, IGR37 GP, 1μΜ; for viability at 10 µM: read-out: cell viability, IGR37 GP, 10μΜ; for cell viability, IGR37 GP, 1μΜ: in %
[6] = test system: 501Mel-XP cells (Vemurafenib-resistant); conditions: 72 h; for cell viability (kinase inhibitor library screening) / cell viability, 501Mel XP, 1μΜ / cell viability, 501Mel XP, 10μΜ: 501Mel XP; for viability at 1 µM / viability at 10 µM: Homo sapiens; for viability at 1 µM: read-out: cell viability, 501Mel XP, 1μΜ; for viability at 10 µM: read-out: cell viability, 501Mel XP, 10μΜ; for cell viability, 501Mel XP, 1μΜ / cell viability, 501Mel XP, 10μΜ: in %
[7] = test system: A375-XP cells (Vemurafenib-resistant); conditions: for cell viability (kinase inhibitor library screening) / cell viability, A375 XP, 1μΜ / cell viability, A375 XP, 10μΜ: A375 XP, 72 h; for viability at 1 µM / viability at 10 µM: Homo sapiens, A-375, 72 h; for viability at 1 µM: read-out: cell viability, A375 XP, 1μΜ; for viability at 10 µM: read-out: cell viability, A375 XP, 10μΜ; for cell viability, A375 XP, 1μΜ / cell viability, A375 XP, 10μΜ: in %
[8] = test system: A375-GP cells (Dabrafenib-resistant); conditions: for cell viability (kinase inhibitor library screening) / cell viability, A375 GP, 1μΜ / cell viability, A375 GP, 10μΜ: A375 GP, 72 h; for viability at 1 µM / viability at 10 µM: Homo sapiens, A-375, 72 h; for viability at 1 µM: read-out: cell viability, A375 GP, 1μΜ; for viability at 10 µM: read-out: cell viability, A375 GP, 10μΜ; for cell viability, A375 GP, 1μΜ / cell viability, A375 GP, 10μΜ: in %
[9] = test system: 501Mel cells (parental); conditions: 72 h; for cell viability (kinase inhibitor library screening) / cell viability, 501Mel Parental, 1μΜ / cell viability, 501Mel Parental, 10μΜ: 501Mel Parental; for viability at 1 µM / viability at 10 µM: Homo sapiens; for viability at 1 µM: read-out: cell viability, 501Mel Parental, 1μΜ; for viability at 10 µM: read-out: cell viability, 501Mel Parental, 10μΜ; for cell viability, 501Mel Parental, 1μΜ / cell viability, 501Mel Parental, 10μΜ: in %
Procedure, shortened: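 Two concentrations of every kinase inhibitor were tested on each melanoma line and its resistant counterparts, and cell survival was quantified by PrestoBlue against untreated wells.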

## CN(C)c1ccc(-c2nc3ncc(Cl)c(N4CCN(CC(=O)Nc5nccs5)CC4)c3[nH]2)cc1 [CCT129202]
[1]; 1μΜ
  cell viability (kinase inhibitor library screening): 95.8%
[1]; 10μΜ
  cell viability (kinase inhibitor library screening): 78.6%
[2]; 1μΜ
  cell viability (kinase inhibitor library screening): 99.5%
[2]; 10μΜ
  cell viability (kinase inhibitor library screening): 41.1%
[3]; 10μΜ
  cell viability (kinase inhibitor library screening): 45.9%
[4]; 1μΜ
  cell viability (kinase inhibitor library screening): 96.6%
[4]; 10μΜ
  cell viability (kinase inhibitor library screening): 40.5%
[5]; 1μΜ
  cell viability (kinase inhibitor library screening): 88.1%
[5]; 10μΜ
  cell viability (kinase inhibitor library screening): 76.6%
[6]; 1μΜ
  cell viability (kinase inhibitor library screening): 85.2%
[6]; 10μΜ
  cell viability (kinase inhibitor library screening): 16.7%
[7]; 1μΜ
  cell viability (kinase inhibitor library screening): 105.5%
[7]; 10μΜ
  cell viability (kinase inhibitor library screening): 49.9%
[8]; 1μΜ
  cell viability (kinase inhibitor library screening): 104.8%
[8]; 10μΜ
  cell viability (kinase inhibitor library screening): 45.0%
[9]; 1μΜ
  cell viability (kinase inhibitor library screening): 93.7%
[9]; 10μΜ
  cell viability (kinase inhibitor library screening): 52.8%

## O=C(NOC[C@H](O)CO)c1ccc(F)c(F)c1Nc1ccc(I)cc1F [PD0325901]
[1]
  viability at 1 µM: 34.5%
  viability at 10 µM: 35.2%
[2]
  viability at 1 µM: 87.8%
  viability at 10 µM: 66.1%
[3]
  viability at 1 µM: 17.6%
  viability at 10 µM: 17.5%
[4]
  viability at 1 µM: 58.6%
  viability at 10 µM: 15.7%
[5]
  viability at 1 µM: 76.5%
  viability at 10 µM: 46.2%
[6]
  viability at 1 µM: 72%
  viability at 10 µM: 54.1%
[7]
  viability at 1 µM: 11.5%
  viability at 10 µM: 11.4%
[8]
  viability at 1 µM: 12.6%
  viability at 10 µM: 13.1%
[9]
  viability at 1 µM: 56.4%
  viability at 10 µM: 64.3%

## CC(=O)Nc1cccc(-n2c(=O)n(C3CC3)c(=O)c3c(Nc4ccc(I)cc4F)n(C)c(=O)c(C)c32)c1 [GSK1120212 (Trametinib)]
[1]; 1μΜ
  cell viability, IGR37 Parental, 1μΜ: 37.2
[1]; 10μΜ
  cell viability, IGR37 Parental, 10μΜ: 36.1
[2]; 1μΜ
  cell viability, 501Mel GP, 1μΜ: 90.4
[2]; 10μΜ
  cell viability, 501Mel GP, 10μΜ: 77.4
[3]; 1μΜ
  cell viability, A375 Parental, 1μΜ: 21.7
[3]; 10μΜ
  cell viability, A375 Parental, 10μΜ: 21.8
[4]; 10μΜ
  cell viability, IGR37 XP, 10μΜ: 22.1%
[4]; 1μΜ
  cell viability, IGR37 XP, 1μΜ: 38.3
[5]; 10μΜ
  cell viability, IGR37 GP, 10μΜ: 56.9%
[5]; 1μΜ
  cell viability, IGR37 GP, 1μΜ: 89.3
[6]; 1μΜ
  cell viability, 501Mel XP, 1μΜ: 75.6
[6]; 10μΜ
  cell viability, 501Mel XP, 10μΜ: 62.1
[7]; 1μΜ
  cell viability, A375 XP, 1μΜ: 14.9
[7]; 10μΜ
  cell viability, A375 XP, 10μΜ: 14.6
[8]; 1μΜ
  cell viability, A375 GP, 1μΜ: 18.8
[8]; 10μΜ
  cell viability, A375 GP, 10μΜ: 16.2
[9]; 1μΜ
  cell viability, 501Mel Parental, 1μΜ: 55.4
[9]; 10μΜ
  cell viability, 501Mel Parental, 10μΜ: 64.9

## CNC(=O)c1ccccc1Nc1nc(Nc2ccc(N3CCOCC3)cc2OC)ncc1Cl [NVP-TAE226]
[1]; 1μΜ
  cell viability, IGR37 Parental, 1μΜ: 82.8
[1]; 10μΜ
  cell viability, IGR37 Parental, 10μΜ: 36.2
[2]; 1μΜ
  cell viability, 501Mel GP, 1μΜ: 72.0
[2]; 10μΜ
  cell viability, 501Mel GP, 10μΜ: 34.3
[3]; 1μΜ
  cell viability, A375 Parental, 1μΜ: 51.1
[3]; 10μΜ
  cell viability, A375 Parental, 10μΜ: 12.7
[4]; 10μΜ
  cell viability, IGR37 XP, 10μΜ: 1.5%
[4]; 1μΜ
  cell viability, IGR37 XP, 1μΜ: 34.8
[5]; 10μΜ
  cell viability, IGR37 GP, 10μΜ: 3.7%
[5]; 1μΜ
  cell viability, IGR37 GP, 1μΜ: 59.0
[6]; 1μΜ
  cell viability, 501Mel XP, 1μΜ: 67.5
[6]; 10μΜ
  cell viability, 501Mel XP, 10μΜ: 20.7
[7]; 1μΜ
  cell viability, A375 XP, 1μΜ: 52.4
[7]; 10μΜ
  cell viability, A375 XP, 10μΜ: 21.6
[8]; 1μΜ
  cell viability, A375 GP, 1μΜ: 41.6
[8]; 10μΜ
  cell viability, A375 GP, 10μΜ: 16.3
[9]; 1μΜ
  cell viability, 501Mel Parental, 1μΜ: 69.2
[9]; 10μΜ
  cell viability, 501Mel Parental, 10μΜ: 38.3

## Cc1cnc(NC(=O)Nc2cc(Br)c(C)cc2OC[C@@H]2CNCCO2)cn1 [LY2603618 (IC-83)]
[1]; 1μΜ
  cell viability (kinase inhibitor library screening): 81.7%
[1]; 10μΜ
  cell viability (kinase inhibitor library screening): 37.5%
[2]; 1μΜ
  cell viability (kinase inhibitor library screening): 91.7%
[2]; 10μΜ
  cell viability (kinase inhibitor library screening): 4.4%
[3]; 10μΜ
  cell viability (kinase inhibitor library screening): 15.4%
[3]; 1μΜ
  cell viability (kinase inhibitor library screening): 86.3%
[4]; 1μΜ
  cell viability (kinase inhibitor library screening): 52.7%
[4]; 10μΜ
  cell viability (kinase inhibitor library screening): 26.7%
[5]; 1μΜ
  cell viability (kinase inhibitor library screening): 73.8%
[5]; 10μΜ
  cell viability (kinase inhibitor library screening): 67.9%
[6]; 1μΜ
  cell viability (kinase inhibitor library screening): 69.5%
[6]; 10μΜ
  cell viability (kinase inhibitor library screening): -0.8%
[7]; 1μΜ
  cell viability (kinase inhibitor library screening): 87.2%
[7]; 10μΜ
  cell viability (kinase inhibitor library screening): 15.7%
[8]; 10μΜ
  cell viability (kinase inhibitor library screening): 11.5%
[9]; 1μΜ
  cell viability (kinase inhibitor library screening): 84.2%
[9]; 10μΜ
  cell viability (kinase inhibitor library screening): 2.1%

## CN(C)Cc1cccc(N/C(=C2\C(=O)Nc3cc(C(N)=O)ccc32)c2ccccc2)c1 [BIX 02188]
[1]
  viability at 1 µM: 99.2%
  viability at 10 µM: 109%
[2]
  viability at 1 µM: 104%
  viability at 10 µM: 96.3%
[3]
  viability at 1 µM: 103%
  viability at 10 µM: 95.5%
[4]
  viability at 1 µM: 107%
  viability at 10 µM: 71.5%
[5]
  viability at 1 µM: 91%
  viability at 10 µM: 93.3%
[6]
  viability at 1 µM: 96.7%
  viability at 10 µM: 86.6%
[7]
  viability at 1 µM: 103%
  viability at 10 µM: 98.5%
[8]
  viability at 1 µM: 103%
  viability at 10 µM: 85.4%
[9]
  viability at 1 µM: 95.5%
  viability at 10 µM: 91.7%

## Oc1cccc(-c2nc(N3CCOCC3)c3oc4ncccc4c3n2)c1 [PI-103]
[1]
  viability at 1 µM: 76.3%
  viability at 10 µM: 10.6%
[2]
  viability at 1 µM: 20%
  viability at 10 µM: 3.4%
[3]
  viability at 1 µM: 61.4%
  viability at 10 µM: 24.2%
[4]
  viability at 1 µM: 80.5%
  viability at 10 µM: 0.328%
[5]
  viability at 1 µM: 87.6%
  viability at 10 µM: 3.8%
[6]
  viability at 1 µM: 13.4%
  viability at 10 µM: -0.0754%
[7]
  viability at 1 µM: 49.4%
  viability at 10 µM: 20.8%
[8]
  viability at 1 µM: 55.6%
  viability at 10 µM: 20.2%
[9]
  viability at 1 µM: 36.3%
  viability at 10 µM: 1.1%
